Test results taken from publication PMC4130903 (Bioorganic & medicinal chemistry letters, 2014).
Where two headings read alike, the source gives them in different places. One block for each compound: values may come before it.

Columns and labels:
[1] = biological target: T1, NTSR1 (Homo sapiens, UniProt P30989); test: Ca2+ assay in the presence and absence of antagonist 5; type: cell-based; conditions: in the presence of antagonist 5 (SR 48692); Figure S1
[2] = biological target: T1, NTSR1; type: cell-based; conditions: for Emax: % of the response obtained with the NT(8–13) peptide, average ± SEM, n = 4; for NTSR1 activity (in words): Ca2+ mobilization assay
[3] = biological target: T1, NTSR1; conditions: Wyeth compound 1, literature value; cited from earlier work
[4] = biological target: T1, NTSR1; conditions: NTSR1 antagonists; cited from earlier work

T1 sequence (P30989 whole entry, species assumed): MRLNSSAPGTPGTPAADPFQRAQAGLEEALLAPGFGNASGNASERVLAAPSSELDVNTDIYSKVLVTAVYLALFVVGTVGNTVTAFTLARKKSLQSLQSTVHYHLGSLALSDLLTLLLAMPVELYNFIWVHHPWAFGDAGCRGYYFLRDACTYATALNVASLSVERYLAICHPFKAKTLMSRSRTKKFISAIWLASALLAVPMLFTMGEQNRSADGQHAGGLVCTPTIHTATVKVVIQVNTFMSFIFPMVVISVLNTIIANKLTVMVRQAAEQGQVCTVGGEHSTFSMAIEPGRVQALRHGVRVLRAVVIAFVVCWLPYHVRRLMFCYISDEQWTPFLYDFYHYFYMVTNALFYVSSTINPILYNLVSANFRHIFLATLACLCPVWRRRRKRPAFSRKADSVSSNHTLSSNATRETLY

- NTSR1 stimulatory activity in the presence of antagonist 5 [1]: abolished
SMILES: CC(C)C[C@H](NC(=O)Cn1ccc2cc(-c3cnc4ccccc4c3)ccc21)c1nn[nH]n1 [Compound 27]

- NTSR1 stimulatory activity in the presence of antagonist 5 [1]: abolished
SMILES: CC(C)C[C@H](NC(=O)Cn1ccc2ccccc21)C(=O)O [Compound 12]

- EC50 [2]: 4 µM
SMILES: O=C(Cn1ccc2cc(-c3cnc4ccccc4c3)ccc21)N[C@@H](Cc1ccccc1)C(=O)O [Compound 31]

- EC50 [2]: 3 µM
- Emax [2]: 100%
- NTSR1 stimulatory activity in the presence of antagonist 5 [1]: abolished
SMILES: CC(C)C[C@H](NC(=O)Cn1ccc2cc(-c3cccc4ccccc34)ccc21)C(=O)O [Compound 17]

- EC50 [2]: > 100 µM
SMILES: CC(C)C[C@@H](NC(=O)Cn1ccc2cc(NS(=O)(=O)c3cccc4cccnc34)ccc21)C(=O)O [Compound 1, reference compound]
- Emax [3]: 17%

- NTSR1 activity (in words) [2]: no activity
SMILES: CC(C)C[C@@H](NC(=O)Cn1ccc2cc(-c3cnc4ccccc4c3)ccc21)C(=O)O [Compound 32]

- NTSR1 stimulatory activity in the presence of antagonist 5 [1]: abolished
SMILES: CC(C)C[C@H](NC(=O)Cn1ccc2ccc(-c3cccc4ccccc34)cc21)C(=O)O [Compound 40]

- NTSR1 stimulatory activity in the presence of antagonist 5 [1]: abolished
SMILES: CC(C)C[C@H](NC(=O)Cn1ccc2cc(-c3cncc4ccccc34)ccc21)C(=O)O [Compound 21]

- NTSR1 stimulatory activity in the presence of antagonist 5 [1]: abolished
SMILES: CC(C)C[C@H](NC(=O)Cn1ccc2ccc(-c3cnc4ccccc4c3)cc21)C(=O)O [Compound 39]

SMILES: COc1cccc(OC)c1-c1cc(C(=O)NC2(C(=O)O)C3CC4CC(C3)CC2C4)nn1-c1ccnc2cc(Cl)ccc12 (stereo not drawn) [Compound 5]
- Binding affinity [4]: low nanomolar range

- NTSR1 activity (in words) [2]: abolished activity
SMILES: COC(=O)[C@H](CC(C)C)NC(=O)Cn1ccc2cc(-c3cccc4ccccc34)ccc21 [Compound 34]

- NTSR1 activity (in words) [2]: loss of activity
SMILES: CC(C)C[C@@H](CO)NC(=O)Cn1ccc2cc(-c3cnc4ccccc4c3)ccc21 [Compound 26]

- NTSR1 stimulatory activity in the presence of antagonist 5 [1]: abolished
SMILES: CC(C)C[C@H](NC(=O)Cn1ccc2cc(NS(=O)(=O)c3cccc4cccnc34)ccc21)C(=O)O [Compound 7]

SMILES: COc1cccc(OC)c1-c1cc(C(=O)NC2(C(=O)O)C3CC4CC(C3)CC2C4)nn1-c1ccc(C(=O)N(C)CCCN(C)C)cc1C(C)C (stereo not drawn) [Compound 6]
- Binding affinity [4]: low nanomolar range

- NTSR1 activity (in words) [2]: loss of activity
SMILES: COC(=O)[C@H](CC(C)C)NC(=O)Cn1ccc2cc(-c3cnc4ccccc4c3)ccc21 [Compound 25]

- Emax [2]: 100%
- Potency improvement compared to parent compound 1 ([2]; EC50 versus compound 1 (EC50 = 178 μM)): ~ 90 fold
- NTSR1 stimulatory activity in the presence of antagonist 5 [1]: abolished
SMILES: CC(C)C[C@H](NC(=O)Cn1ccc2cc(-c3cnc4ccccc4c3)ccc21)C(=O)O [Compound 8]
